Laboratory results taken from patent US20110021355A1, “FORMULATION WITH REDUCED HYGROSCOPICITY” (BAYER TECHNOLOGY SERVICES GMBH, priority 2008, published 2011).

Experiment: Final pH of the formulation after dissolution in 0.01-molar hydrochloric acid / release
Type: physicochemical
Conditions: 0.1 g solid in 100 g of 0.01-molar hydrochloric acid, 400 rpm (FIG. 2)
Experimental: For verification of the final pH after dissolution, 100 g of 0.01-molar hydrochloric acid was put in a beaker and stirred with an inclined-vane stirrer at 400 rpm. Then 0.1 g of the solid to be verified (formulation from example 1, and magnesium hydroxide) was added and the increase in pH was recorded (pH-meter: Knick®Calimatic 766).

With `[Mg+2].[OH-].[OH-]` [pure magnesium hydroxide, magnesium hydroxide] the “time after which the final pH is established” value was “about 1800 s”.
